Results from ChEMBL document CHEMBL1201862, “PubChem BioAssay data set” (2004).
Blank lines part the entries; values can stand above or below the molecule they belong to. Active and inactive are the calls of the source.

Assays:
[1] = target: DNA dC->dU-editing enzyme APOBEC-3A (Homo sapiens, UniProt P31941); assay: Dose Response confirmation of small molecule APOBEC3A DNA Deaminase Inhibitors via a fluorescence-based single-stranded DNA deaminase assay. [Related pubchem assays (depositor defined):AID493011, AID493024]; assay type: functional
[2] = target: DNA dC->dU-editing enzyme APOBEC-3G (Homo sapiens, UniProt Q9HC16); assay type: functional;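 also: Dose-response counterscreen measuring inhibition of APOBEC3G DNA deaminase activity, run while confirming APOBEC3A inhibitors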
Aminopeptidase N = target: T1, Aminopeptidase N (Plasmodium falciparum FcB1/Columbia, UniProt O96935); assay: P. falciparum M1AAP inhibitors, biochemical, fluorogenic H-Leu-NHMec substrate, 1536-well (AID 1445); set-up: species or system Plasmodium falciparum 3D7, 3D7
T1 sequence (O96935 whole entry): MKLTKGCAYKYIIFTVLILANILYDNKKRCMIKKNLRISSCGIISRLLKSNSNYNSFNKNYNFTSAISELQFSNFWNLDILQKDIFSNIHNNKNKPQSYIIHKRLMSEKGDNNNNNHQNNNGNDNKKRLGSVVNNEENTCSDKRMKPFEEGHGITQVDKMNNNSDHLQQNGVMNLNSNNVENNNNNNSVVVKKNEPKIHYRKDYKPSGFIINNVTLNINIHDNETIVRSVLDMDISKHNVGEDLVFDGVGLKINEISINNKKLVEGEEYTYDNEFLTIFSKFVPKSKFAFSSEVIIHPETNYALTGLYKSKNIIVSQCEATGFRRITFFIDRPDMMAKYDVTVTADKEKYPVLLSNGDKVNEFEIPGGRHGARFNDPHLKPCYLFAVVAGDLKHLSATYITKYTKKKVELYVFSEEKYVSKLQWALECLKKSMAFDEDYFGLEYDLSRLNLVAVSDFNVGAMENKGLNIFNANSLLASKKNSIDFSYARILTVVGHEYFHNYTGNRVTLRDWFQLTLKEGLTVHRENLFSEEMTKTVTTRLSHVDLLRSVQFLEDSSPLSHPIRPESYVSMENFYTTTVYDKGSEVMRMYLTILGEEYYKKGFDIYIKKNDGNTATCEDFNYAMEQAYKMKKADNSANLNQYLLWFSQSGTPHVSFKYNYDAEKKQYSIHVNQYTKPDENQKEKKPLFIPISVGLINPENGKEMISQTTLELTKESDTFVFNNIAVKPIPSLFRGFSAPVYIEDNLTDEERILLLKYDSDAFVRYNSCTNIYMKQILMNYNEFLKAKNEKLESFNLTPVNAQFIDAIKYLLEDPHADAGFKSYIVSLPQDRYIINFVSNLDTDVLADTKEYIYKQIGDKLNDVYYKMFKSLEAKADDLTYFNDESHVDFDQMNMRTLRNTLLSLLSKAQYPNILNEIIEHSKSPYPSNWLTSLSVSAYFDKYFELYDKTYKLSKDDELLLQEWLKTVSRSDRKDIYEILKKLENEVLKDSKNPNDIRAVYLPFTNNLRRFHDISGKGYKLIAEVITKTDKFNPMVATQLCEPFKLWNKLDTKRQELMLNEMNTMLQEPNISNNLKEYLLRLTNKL

Cytochrome P450 2C9 = Cytochrome P450 2C9 (Homo sapiens, UniProt P11712); settings: Potency
Estrogen receptor = target: T2, Estrogen receptor (Homo sapiens, UniProt P03372);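 also: potency for inhibiting coactivator peptide recruitment to the receptor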
T2 sequence (P03372 whole entry): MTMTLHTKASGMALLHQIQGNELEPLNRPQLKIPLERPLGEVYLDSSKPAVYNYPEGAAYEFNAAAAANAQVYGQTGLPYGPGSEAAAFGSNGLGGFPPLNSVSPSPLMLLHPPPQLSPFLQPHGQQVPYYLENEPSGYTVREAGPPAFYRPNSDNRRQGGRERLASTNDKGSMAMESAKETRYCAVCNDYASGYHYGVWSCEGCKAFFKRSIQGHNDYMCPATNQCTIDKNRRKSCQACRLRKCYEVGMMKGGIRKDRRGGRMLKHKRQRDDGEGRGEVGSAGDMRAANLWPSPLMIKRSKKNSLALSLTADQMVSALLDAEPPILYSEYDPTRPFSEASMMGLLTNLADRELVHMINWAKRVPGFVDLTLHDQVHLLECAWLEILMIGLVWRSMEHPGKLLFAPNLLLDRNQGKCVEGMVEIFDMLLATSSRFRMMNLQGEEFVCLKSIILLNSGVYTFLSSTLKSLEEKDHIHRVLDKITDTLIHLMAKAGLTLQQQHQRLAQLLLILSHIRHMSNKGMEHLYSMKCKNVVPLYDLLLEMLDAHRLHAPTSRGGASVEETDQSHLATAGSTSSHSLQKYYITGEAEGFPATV

Estrogen receptor beta = Estrogen receptor beta (Homo sapiens, UniProt Q92731);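 also: recombinant ER-beta bound to coactivator SRC1 peptide in presence of estradiol agonist; inhibitors block coactivator peptide binding and lower the FRET signal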
[3] = target: T3, Alkaline phosphatase, tissue-nonspecific isozyme (Homo sapiens, UniProt P05186); assay: human TNAP enzyme inhibitors, SAR follow-up, biochemical, luminescent, dose response (AID 1056)
T3 sequence (P05186 whole entry): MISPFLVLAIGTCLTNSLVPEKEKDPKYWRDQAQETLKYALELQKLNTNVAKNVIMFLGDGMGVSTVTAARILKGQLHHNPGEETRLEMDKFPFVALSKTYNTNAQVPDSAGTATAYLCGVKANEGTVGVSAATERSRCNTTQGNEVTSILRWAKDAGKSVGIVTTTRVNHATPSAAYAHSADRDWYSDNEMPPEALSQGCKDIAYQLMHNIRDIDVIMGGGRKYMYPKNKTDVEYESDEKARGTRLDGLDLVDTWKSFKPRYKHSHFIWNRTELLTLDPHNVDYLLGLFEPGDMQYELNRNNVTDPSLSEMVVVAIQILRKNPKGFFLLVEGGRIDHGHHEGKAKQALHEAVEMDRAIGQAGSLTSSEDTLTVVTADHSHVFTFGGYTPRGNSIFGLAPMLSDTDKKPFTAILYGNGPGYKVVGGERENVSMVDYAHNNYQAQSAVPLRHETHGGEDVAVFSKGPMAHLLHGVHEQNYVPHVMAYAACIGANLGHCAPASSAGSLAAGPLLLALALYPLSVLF

[4] = target: Glyceraldehyde-3-phosphate dehydrogenase (Homo sapiens, UniProt P04406)
[5] = target: T4, Heat shock factor protein 1 (Mus musculus, UniProt P38532); assay: HSF1 potentiators in luciferase reporter cells, confirmation, cell-based, NIH3T3, luminescence, dose retest (AID 435004); assay type: functional;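 also: stress induced by proteasome inhibitor MG132 added 30 min after compound; luciferase reporter driven by HSF1 response element in NIH3T3 cells; actives raise luminescence as potentiators of the MG132 stress response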
T4 sequence (P38532 whole entry): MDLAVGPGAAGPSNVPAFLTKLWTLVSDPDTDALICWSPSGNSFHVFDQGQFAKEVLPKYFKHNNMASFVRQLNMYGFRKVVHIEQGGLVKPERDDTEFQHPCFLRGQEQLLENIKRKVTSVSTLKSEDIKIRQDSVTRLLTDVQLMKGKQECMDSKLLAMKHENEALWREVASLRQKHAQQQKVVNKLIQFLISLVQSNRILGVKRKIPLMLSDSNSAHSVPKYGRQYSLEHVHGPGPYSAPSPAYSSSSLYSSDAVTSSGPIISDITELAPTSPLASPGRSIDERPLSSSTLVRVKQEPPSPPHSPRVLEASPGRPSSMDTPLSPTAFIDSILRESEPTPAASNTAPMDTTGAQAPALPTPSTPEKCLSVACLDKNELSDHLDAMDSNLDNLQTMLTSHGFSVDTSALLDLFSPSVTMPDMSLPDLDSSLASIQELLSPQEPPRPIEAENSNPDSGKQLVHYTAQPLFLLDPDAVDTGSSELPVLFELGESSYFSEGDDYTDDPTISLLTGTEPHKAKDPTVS

Trypsin = Trypsin (Sus scrofa, UniProt P00761); assay: porcine trypsin inhibitors, dose response, selectivity assay for Rce1 protease inhibitor project, biochemical, quenched peptide fluorescence, cherry-pick (AID 488789)
Sequence of Trypsin (P00761 whole entry): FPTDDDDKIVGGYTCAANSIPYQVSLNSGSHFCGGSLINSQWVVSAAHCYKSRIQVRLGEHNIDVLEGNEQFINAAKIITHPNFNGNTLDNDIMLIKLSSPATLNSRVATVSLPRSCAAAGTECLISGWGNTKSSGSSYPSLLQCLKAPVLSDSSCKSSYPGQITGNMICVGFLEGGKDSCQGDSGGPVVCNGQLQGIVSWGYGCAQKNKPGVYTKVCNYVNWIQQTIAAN

Sequence of Cytochrome P450 2C9 (P11712 whole entry): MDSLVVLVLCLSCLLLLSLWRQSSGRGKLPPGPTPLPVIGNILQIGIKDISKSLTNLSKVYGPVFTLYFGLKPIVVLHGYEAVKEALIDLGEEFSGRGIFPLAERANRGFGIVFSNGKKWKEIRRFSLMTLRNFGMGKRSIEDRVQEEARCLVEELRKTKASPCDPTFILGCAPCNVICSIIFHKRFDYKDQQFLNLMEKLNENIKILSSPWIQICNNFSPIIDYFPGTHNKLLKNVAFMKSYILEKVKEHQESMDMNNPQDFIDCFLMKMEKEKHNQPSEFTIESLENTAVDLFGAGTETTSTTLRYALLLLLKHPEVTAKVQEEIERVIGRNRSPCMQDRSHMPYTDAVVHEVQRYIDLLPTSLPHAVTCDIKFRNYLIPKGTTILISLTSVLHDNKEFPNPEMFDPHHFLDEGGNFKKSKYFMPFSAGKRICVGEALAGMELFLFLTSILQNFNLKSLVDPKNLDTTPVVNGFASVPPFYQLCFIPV
Sequence of DNA dC->dU-editing enzyme APOBEC-3A (P31941 whole entry): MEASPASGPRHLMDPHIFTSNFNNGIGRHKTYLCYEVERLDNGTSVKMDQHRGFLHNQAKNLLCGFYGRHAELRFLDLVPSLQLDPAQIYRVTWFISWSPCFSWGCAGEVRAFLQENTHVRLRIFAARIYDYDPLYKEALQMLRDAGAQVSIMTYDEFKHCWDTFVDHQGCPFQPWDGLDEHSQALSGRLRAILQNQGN
Sequence of DNA dC->dU-editing enzyme APOBEC-3G (Q9HC16 whole entry): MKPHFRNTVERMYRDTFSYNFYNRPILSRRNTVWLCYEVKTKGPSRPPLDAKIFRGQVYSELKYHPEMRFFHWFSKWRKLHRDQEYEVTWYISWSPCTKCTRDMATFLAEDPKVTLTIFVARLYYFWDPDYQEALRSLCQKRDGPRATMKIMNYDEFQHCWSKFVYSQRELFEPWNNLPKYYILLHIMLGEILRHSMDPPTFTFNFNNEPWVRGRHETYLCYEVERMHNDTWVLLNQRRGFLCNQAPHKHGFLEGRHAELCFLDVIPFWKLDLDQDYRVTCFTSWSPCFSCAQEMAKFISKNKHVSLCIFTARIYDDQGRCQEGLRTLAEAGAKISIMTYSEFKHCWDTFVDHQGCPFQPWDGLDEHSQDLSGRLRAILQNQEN
Sequence of Glyceraldehyde-3-phosphate dehydrogenase (P04406 whole entry): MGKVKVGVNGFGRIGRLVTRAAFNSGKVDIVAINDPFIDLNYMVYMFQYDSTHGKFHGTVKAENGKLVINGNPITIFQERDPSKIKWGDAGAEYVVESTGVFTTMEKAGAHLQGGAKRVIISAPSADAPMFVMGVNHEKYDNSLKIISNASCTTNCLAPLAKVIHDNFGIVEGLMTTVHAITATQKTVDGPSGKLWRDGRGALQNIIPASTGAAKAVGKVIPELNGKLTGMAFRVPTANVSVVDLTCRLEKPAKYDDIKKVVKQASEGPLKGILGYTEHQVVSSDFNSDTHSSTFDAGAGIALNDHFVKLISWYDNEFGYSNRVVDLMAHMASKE
Sequence of Estrogen receptor beta (Q92731 whole entry): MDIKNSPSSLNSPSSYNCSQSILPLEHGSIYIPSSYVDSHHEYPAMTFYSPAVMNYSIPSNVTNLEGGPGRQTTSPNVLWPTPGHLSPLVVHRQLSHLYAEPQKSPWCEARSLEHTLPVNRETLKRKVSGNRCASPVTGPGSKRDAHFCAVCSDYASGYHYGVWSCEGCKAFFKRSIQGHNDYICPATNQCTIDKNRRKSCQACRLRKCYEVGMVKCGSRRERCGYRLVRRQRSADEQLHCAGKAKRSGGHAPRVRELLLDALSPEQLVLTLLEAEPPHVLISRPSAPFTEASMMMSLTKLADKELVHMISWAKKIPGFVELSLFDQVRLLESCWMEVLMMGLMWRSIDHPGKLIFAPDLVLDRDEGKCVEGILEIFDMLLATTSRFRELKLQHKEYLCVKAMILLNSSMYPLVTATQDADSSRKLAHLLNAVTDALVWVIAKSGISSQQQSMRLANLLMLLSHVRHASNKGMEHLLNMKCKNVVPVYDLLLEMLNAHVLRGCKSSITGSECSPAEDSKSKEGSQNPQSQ

- IC50 (Aminopeptidase N): 43.3 µM (active)
Compound: COc1ccc(-c2[nH]nc3c2C2(C(=O)N(CC(=O)O)c4ccccc42)C(C#N)=C(N)O3)cc1OC (stereo not drawn)

- IC50 (Aminopeptidase N): 8.94 µM (active)
Compound: O=C(O)COc1ccc(/C=N/n2c(COc3ccccc3)nc3ccccc3c2=O)cc1

- AC50 (Cytochrome P450 2C9): 39.8 µM (inconclusive)
Compound: CC(C)C[C@@H](CC(=O)N[C@@H](CCCN)CC(=O)N[C@@H]1CCNC[C@H]1C(=O)N[C@H](CC(=O)N[C@@H](CCC(=O)O)CC(=O)O)CC(C)C)NC(=O)[C@@H]1CNCC[C@H]1N

- IC50 (Aminopeptidase N): 26.9 µM (active)
- EC50 [5]: > 260 µM (inactive)
Compound: Cc1ccc(S(=O)(=O)NNC(=O)c2sc3nc(C)cc(C)c3c2-n2cccc2)cc1

More lines, now with the values behind:

Compound: CC(C)C(CO)N1CCN(Cc2ccccc2)CCC1=O (stereo not drawn)
- IC50 [1]: 8.79 µM (active)
- IC50 [2]: 10.1 µM (active)

Compound: CC(C)C[C@@H](CC(=O)N[C@H](CC(=O)N[C@@H]1CCCC[C@H]1C(=O)N[C@H](CC(=O)N[C@@H](CCC(=O)O)CC(=O)O)Cc1ccccc1)C(C)C)NC(=O)[C@@H]1CNCC[C@H]1N
- AC50 (Cytochrome P450 2C9): 31.6 µM (inconclusive)

Compound: O=C(Cc1cccs1)Nc1ccccn1
- IC50 (Estrogen receptor): 13.4 µM (active)
- IC50 (Estrogen receptor beta): 16.8 µM (active)

Compound: CC(C)C[C@@H](CC(=O)N[C@@H](CCC(=O)O)CC(=O)O)NC(=O)[C@@H]1CCCC[C@H]1NC(=O)C[C@@H](NC(=O)C[C@H](CO)NC(=O)[C@@H]1CNCC[C@H]1N)C(C)C
- AC50 (Cytochrome P450 2C9): 31.6 µM (inconclusive)

Compound: Cc1nc(-c2cccnc2)c[nH]1
- IC50 [3]: > 100 µM (inactive)
- IC50 [4]: > 100 µM (not active)

Compound: CNC(=O)/C(C#N)=C\c1ccc(CNS(=O)(=O)c2ccc(Cl)cc2)o1
- IC50 [1]: 3.02 µM (active)
- IC50 [2]: 2.81 µM (active)

Compound: Cc1cc2nn(-c3cccc4ccccc34)nc2cc1NC(=O)c1cccs1
- AC50 (Trypsin): 8.06 µM (active)

Compound: Cc1ccc(-c2ccc(C(=O)O)[nH]2)cc1
- IC50 [3]: > 100 µM (inactive)
- IC50 [4]: > 100 µM (not active)
